Measured values taken from patent US5599663A, “Angiotensin IV and analogs as regulators of fibrinolysis” (Brighan & Women's Hospital, priority 1993, dated 1997).

How the values were obtained:
[1] = tested on: bovine aortic endothelial cells receptor for Ang II; assay: Binding of ^125 I-Ang II to cultured bovine aortic endothelial cells
Source text: We first studied the role of angiotensin (Ang) II in the regulation of endothelial fibrinolysis, by determining if Ang II binds to the target cell, which in this case was bovine aortic endothelial cells. In these experiments, we used early passage bovine aortic endothelial cells (P2-4) grown to confluence in DMEM supplemented with penicillin, streptomycin, and 10% newborn calf serum.
To test whether the Ang II receptor on the bovine aortic endothelial cells is similar or identical to the classic AT1 receptor, we measured the potency of the antagonist saralasin for binding.

PAI-1 [2] = assay: PAI-1 secretion into conditioned media of bovine aortic endothelial cells (ELISA; activity); assay type: cell-based
Procedure: FIG. 6 is a dose response curve of PAI-1 secretion into the conditioned media of bovine aortic endothelial cells following exposure to Ang II.
In these experiments, we investigated the effects of Ang II on the secretion of PAI-1 into the media of cultured endothelial cells. […] Ang II (in the concentrations indicated) was added to washed, confluent cultures of bovine aortic endothelial cells, and the conditioned media was removed for assay after 18 hour. Levels of PAI-1 antigen in the media were determined using a specific ELISA for PAI-1, such as the assay described in DeClerk et al., Blood (1988) 71:220-225, or the assay sold by Biopool, AB, Umea, Sweden.
(§1) The increases in PAI-1 activity and antigen observed thus far have been associated with an approximate 4-fold increase in PAI-1 message (FIGS. 7 and 8). The cells for these experiments were incubated for 8 hour in fresh serum-free media containing the indicated concentrations of Ang II. Total RNA was extracted and analyzed by Northern blotting.

PAI-1 mRNA = PAI-1 mRNA induction in bovine aortic endothelial cells (Northern / slot blot); assay type: cell-based; conditions: for effect on Ang II stimulation of PAI-1 mRNA levels: antagonist 1 μM
Procedure: FIG. 7 is a Northern blot showing the induction of PAI-1 RNA after treatment of bovine aortic endothelial cells with angiotensin II.
FIG. 8 is a graph showing the dose response of PAI-1 RNA induction by Ang II.
FIG. 9 is a Northern blot showing the time course of induction of PAI-1 RNA after treatment of bovine aortic endothelial cells with 20 nM angiotensin II.
FIG. 10 is a graph showing the PAI-1 mRNA levels as a function of time, in bovine aortic endothelial cells treated with 20 nM angiotensin II.
as §1
Ang II is also associated with a time-dependent increase in PAI-1 mRNA that peaks 6-8 hrs after exposure to Ang II, as assessed by Northern blot analysis (FIG. 9). Confluent cultures of bovine aortic endothelial cells were incubated with 20 nM Ang II in serum-free DMEM. Total cytoplasmic RNA was extracted at the indicated times and analyzed by Northern blotting (FIG. 9). The results corresponding to the 3.3-kb PAI-1 mRNA species were quantified by transmission densitometry. To control for variability in gel loading, the blots were stripped and rehybridized with a cDNA probe for β-actin. Normalized data are plotted in the FIG. 10.

[3] = Mean blood pressure during graded infusions in rabbits; assay type: in vivo, New Zealand White rabbits; conditions: for effect on mean blood pressure: graded infusions, healthy rabbits
Source text: FIG. 11 is a graph of the mean BP at baseline and after increasing doses of Ang II alone, Ang IV alone, saline, and Ang II in rabbits pretreated with amastatin. Error bars represent SEM.
(§2) We have also undertaken a series of experiments designed to identify the specific form of angiotensin that is responsible for the increased plasma PAI-1 levels seen in our human studies. We examined the effects of graded infusions of Ang II and Ang IV on blood pressure and plasma PAI activity in healthy New Zealand White rabbits.

PAI-1 [4] = assay: Plasma PAI-1 during Ang II infusion in human volunteers; assay type: in vivo
Procedure: (§3) Second, this binding appears to have a functional effect on bovine aortic endothelial cells in inducing the synthesis of PAI-1 message and the secretion of PAI-1 into the conditioned media. Importantly, we have observed increased levels of PAI-1 mRNA induced by physiologically relevant doses of Ang II (i.e. 0.1 nM). The potential significance of these in vitro findings are supported by recent data obtained during the infusion of Ang II into healthy human volunteers. In these studies, normotensive volunteers (N=4) received an infusion of Ang II in graded doses of 1.0, 3.0. and 10.0 ng/kg/min., while 4 additional normotensive volunteers received an infusion of D5W. Plasma levels of t-PA and PAI-1 were measured prior to and at the conclusion of each dose. […] Similar findings have been obtained in an additional group of hypertensive volunteers (N=6) that received a constant infusion of Ang II (3 ng/kg/min) over a 45 min period. In these individuals, we observed a 60% increase in plasma PAI-1 compared with pretreatment levels (p<0.04).

t-PA [5] = assay: Plasma t-PA during Ang II infusion in human volunteers; assay type: in vivo
Procedure: as §3

PAI-1 [6] = assay: Plasma PAI-1 during graded infusions in rabbits; assay type: in vivo, New Zealand White rabbits; conditions: for effect on plasma PAI-1 levels: graded infusions, healthy rabbits
Source text: FIG. 12 is a graph of the mean plasma PAI-1 activity at baseline and after increasing doses of Ang II alone, Ang IV alone, saline, and Ang II in rabbits pretreated with amastatin. Error bars represent SEM.
as §2

t-PA [7] = assay: t-PA antigen or activity in conditioned media of bovine aortic endothelial cells; assay type: cell-based
AT1 receptor = conditions: well established property of the AT1 receptor; cited from earlier work
[8] = Ang II after pretreatment with amastatin

## O[C@H](CS)[C@H](O)CS (relative stereo) [DTT]
[1]; 5 mM DTT, ^125 I-Ang II (0.27 nM)
  reduction in total binding: 50%

## ^125 I-Ang II: ^125 I labelled Ang II
[1]; FIG. 2
  character of binding to bovine aortic endothelial cells: saturable and specific manner
[1]; Scatchard transformation of specific binding, room temperature, read-out: apparent Kd
  Kd: ~2 nM
[1]; Scatchard transformation, room temperature
  Bmax: 105 fmol/10^6 cells
[1]; room temperature
  time to binding equilibrium: ≤ 45 min

## CC[C@H](C)[C@H](NC(=O)[C@H](Cc1ccc(O)cc1)NC(=O)[C@@H](NC(=O)[C@H](CCCNC(=N)N)NC(=O)[C@@H](N)CC(=O)O)C(C)C)C(=O)N[C@@H](Cc1cnc[nH]1)C(=O)N1CCC[C@H]1C(=O)N[C@@H](Cc1ccccc1)C(=O)O [Ang II, angiotensin II]
PAI-1 [2]; 18 hour exposure, PAI-1 antigen ELISA
  effect on secretion of PAI-1 into media: induce the secretion of PAI-1 in a dose-dependent manner
PAI-1 [2]; PAI-1 antigen in conditioned media, 18 hour
  EC50: ~20 nM
PAI-1 [2]; after reactivation of latent protein with guanidine hydrochloride
  changes in PAI-1 activity: corresponding changes in PAI-1 activity
PAI-1 mRNA
  concentration at which increased levels of PAI-1 mRNA were observed: 0.1 nM
PAI-1 mRNA; 20 nM Ang II, serum-free DMEM
  time of peak PAI-1 mRNA after exposure: 6 to 8 h
PAI-1 mRNA; 8 hour, serum-free media, normalized to β-actin
  increase in PAI-1 message: ~4 fold
[3]
  effect on mean blood pressure: dose-dependent increase in mean blood pressure
PAI-1 [4]; graded infusion 1.0, 3.0 and 10.0 ng/kg/min
  effect on PAI-1 secretion/response in normotensive volunteers: increased in the subjects that received the Ang II infusions in a dose-dependent manner
PAI-1 [4]; hypertensive volunteers (N=6), 3 ng/kg/min over 45 min, p<0.04
  increase in plasma PAI-1 compared with pretreatment: 60%
PAI-1 [4]; normotensive volunteers (N=4), infusion graded 1.0, 3.0 and 10.0 ng/kg/min, from 14.7±5.3, mean±SEM, p<0.001 by ANOVA
  plasma PAI-1 level: 33.5±10.6
t-PA [5]
  plasma t-PA levels: plasma t-PA levels do not increase
PAI-1 [6]
  effect on plasma PAI-1 levels: dose-dependent increase in plasma PAI-1 levels
t-PA [7]
  effect on t-PA antigen or activity in conditioned media: not observed a similar increase in t-PA antigen or activity

## CC[C@H](C)[C@H](NC(=O)[C@H](Cc1ccc(O)cc1)NC(=O)[C@@H](N)C(C)C)C(=O)N[C@@H](Cc1cnc[nH]1)C(=O)N1CCC[C@H]1C(=O)N[C@@H](Cc1ccccc1)C(=O)O [Ang IV, VAL-TYR-ILE-HIS-PRO-PHE]
[3]
  effect on mean blood pressure: stable mean BP
PAI-1 [6]
  effect on plasma PAI-1 levels: dose-dependent increase in plasma PAI-1 levels

## CNCC(=O)N[C@@H](CCCN=C(N)N)C(=O)N[C@H](C(=O)N[C@@H](Cc1ccc(O)cc1)C(=O)N[C@H](C(=O)N[C@@H](Cc1cnc[nH]1)C(=O)N1CCC[C@H]1C(=O)N[C@@H](C)C(=O)O)C(C)C)C(C)C [saralasin, (Sar^1,Val^5,Ala^8)-angiotensin]
AT1 receptor
  Ki: 0.4 nM
PAI-1 mRNA
  effect on Ang II stimulation of PAI-1 mRNA levels: does not appear to be prevented

## CCCCc1nc(Cl)c(CO)n1Cc1ccc(-c2ccccc2-c2nn[nH]n2)cc1 [Dup 753]
PAI-1 mRNA
  effect on Ang II stimulation of PAI-1 mRNA levels: does not appear to be prevented

## CC(C)C[C@@H](N)[C@H](O)C(=O)N[C@H](C(=O)N[C@H](C(=O)N[C@@H](CC(=O)O)C(=O)O)C(C)C)C(C)C [amastatin]
[3]; [8]
  effect on mean blood pressure, Ang II after amastatin pretreatment: expected increases in blood pressure
PAI-1 [6]; [8]
  PAI-1 response, Ang II after amastatin pretreatment: PAI-1 response was reduced considerably
